Test results as given in paper PMC3660081 (Annals of Oncology, 2013).
Entries after “also recorded” stand apart in the source; their conditions may differ. Blank lines part the entries; values can stand above or below the molecule they belong to.

What was measured:
[1] = Drug-related treatment-emergent adverse events; type: in vivo, human; details: for Administration interrupted (omitted) / Dose reduction due to adverse events: % of administered cycles
[2] = tested on: heavily pretreated colorectal cancer; details: single-agent regorafenib; cited from earlier work
[3] = tested on: UGT1A9; details: cited from earlier work
[4] = tested on: UGT1A1; details: cited from earlier work
[5] = cited from earlier work
[6] = tested on: colorectal cancer after progression on standard therapy; details: versus best supportive care 5.0 months; cited from earlier work
[7] = Pharmacokinetics of chemotherapy components before; details: for Effect of regorafenib on pharmacokinetics/exposure, in words: cycle 2 versus cycle 1; for Cmax in cycle 2 versus cycle 1, in words: following regorafenib dosing
[8] = after versus before regorafenib dosing
[9] = Cycle 1 day 1, before regorafenib dosing
[10] = Cycle 2 day 1, after regorafenib dosing

Structure (SMILES): CNC(=O)c1cc(Oc2ccc(NC(=O)Nc3ccc(Cl)c(C(F)(F)F)c3)c(F)c2)ccn1 [Regorafenib]
Tolerability in combination with chemotherapy (FOLFOX or FOLFIRI), in words ([1]; regorafenib 160 mg once daily days 4–10 and 18–24): acceptable tolerability | Stable disease [2]: 19 of 27 | Inhibition of UGT1A9, in words [3]: strong inhibitor | Inhibition of UGT1A1, in words [4]: strong inhibitor | Half-life [5]: 25 h | Overall survival (OS) [6]: 6.4 months

AUC ratio (90% CI) Cycle 2/Cycle 1 [7, 8]: 1.28 | Cmax ratio (90% CI) Cycle 2/Cycle 1 [7, 8]: 1.22 (0.80–1.85) | Cmax in cycle 2 versus cycle 1, in words [7]: only slightly increased | AUC ([7]; human, in vivo, geometric mean, Cycle 1 day 1, before regorafenib dosing): 10700 ng·h/mL | AUC ([7]; human, in vivo, geometric mean, Cycle 2 day 1, after regorafenib dosing): 13800 ng·h/mL | Cmax ([7]; human, in vivo, Cmax, geometric mean, Cycle 1 day 1, before regorafenib dosing): 1900 ng/mL
Structure (SMILES): CCc1c2c(nc3ccc(OC(=O)N4CCC(N5CCCCC5)CC4)cc13)-c1cc3c(c(=O)n1C2)COC(=O)[C@]3(O)CC [Irinotecan, irinotecan]
Administration interrupted (omitted) [1]: 5% | Dose reduction due to adverse events [1]: 12% | Effect of regorafenib on pharmacokinetics/exposure, in words [7]: increased exposure; also recorded: increased significantly

Cmax ratio (90% CI) Cycle 2/Cycle 1 ([7]; FOLFIRI regimen): 0.92 (0.06–13.9) | t½, geometric mean ([7]; FOLFIRI regimen, Cycle 1, before regorafenib dosing): 0.2 H | AUC ratio (90% CI) Cycle 2/Cycle 1 ([7]; FOLFOX regimen): 1.06 (0.69–1.64) | Cmax ratio (90% CI) Cycle 2/Cycle 1 ([7]; FOLFOX regimen): 0.89 (0.50–1.61) | t½, geometric mean ([7]; FOLFOX regimen, Cycle 1, before regorafenib dosing): 0.4 H | t½, geometric mean ([7]; FOLFOX regimen, Cycle 2, after regorafenib dosing): 2.4 H | Effect of regorafenib on pharmacokinetics/exposure, in words [7]: no significant effect
Structure (SMILES): O=c1[nH]cc(F)c(=O)[nH]1 [5-fluorouracil]
Administration interrupted (omitted) [1]: 8% | Dose reduction due to adverse events [1]: 18%

Structure (SMILES): O=C1[O][Pt]2([NH][C@@H]3CCCC[C@H]3[NH]2)[O]C1=O [Oxaliplatin, oxaliplatin]
Administration interrupted (omitted) [1]: 11% | Dose reduction due to adverse events [1]: 11% | Effect of regorafenib on pharmacokinetics/exposure, in words [7]: no significant effect

Structure (SMILES): NC(=O)c1cc(Oc2ccc(NC(=O)Nc3ccc(Cl)c(C(F)(F)F)c3)c(F)c2)cc[n+]1[O-] [M5]
Half-life [5]: 51 to 64 h

Structure (SMILES): CCc1c2c(nc3ccc(O)cc13)-c1cc3c(c(=O)n1C2)COC(=O)[C@]3(O)CC [SN-38]
AUC, geometric mean [7, 9]: 0.4 mg·h/L | t½, geometric mean [7, 9]: 16.8 h | AUC, geometric mean [7, 10]: 0.5 mg·h/L | t½, geometric mean [7, 10]: 19.3 h | AUC ratio (90% CI) Cycle 2/Cycle 1 [7, 8]: 1.44 | Cmax ratio (90% CI) Cycle 2/Cycle 1 [7, 8]: 0.91 (0.55–1.50) | Effect of regorafenib on pharmacokinetics/exposure, in words [7]: increased exposure; also recorded: increased significantly | Cmax in cycle 2 versus cycle 1, in words [7]: unchanged

Structure (SMILES): CNC(=O)c1cc(Oc2ccc(NC(=O)Nc3ccc(Cl)c(C(F)(F)F)c3)c(F)c2)cc[n+]1[O-] [M2]
Half-life [5]: 26 to 28 h
